The values below come from US10935552B2, “Aie luminogens for visualization and treatment of cancer” (THE HONG KONG UNIVERSITY OF SCIENCE AND TECHNOLOGY, priority 2015, dated 2021).

For series [1], the system named is HeLa cells. Nature of the series: Cell imaging under fluorescent microscope, HeLa cells. It counts as cell-based, human. To be noted: Hela, 200 nM DPA-IQ, 10 min. The method, then: Cell culture: HeLa cells were cultured in the MEM containing 10% FBS and 1% antibiotics (100 units/mL penicillin and 100 µg/mL streptomycin) in a 5% CO2 humidity incubator at 37° C. COS-7, MDA-MB-231, MCF-7, and MDCK-II cells were culture in the DMEM containing 10% FBS and antibiotics (100 units/mL penicillin and 100 µg/mL streptomycin) in a 5% CO2 humidity incubator at 37° C.
Cell imaging: two different kind of cells were grown overnight on a 35 mm petri dish with a cover slip. The live cells were incubated with 200 nM of TPE-IQ-2O for 1, 5, 10, and 20 mins. In a typical experiment, 2 μL of a 10 mM stock solution of TPE-IQ-2O in DMSO was diluted to 2 mL with cell culture medium, followed by further dilution to desired concentration. The cells were imaged under a fluorescent microscope (BX41 Microscope) using the same excitation and emission filters: excitation filter=400-440 nm, dichroic mirror=455 nm, and emission filter=465 nm long pass.
Two different kinds of cells were grown overnight on a 35 mm petri dish with a cover slip. The live cells were incubated with 200 nM of TPE-IQ-20 for 20, 10, 5, and 1 mins. The Hela cells were stained by TPE-IQ-2O; the COS-7 cells were stained by TPE-IQ-2O; the Hela cells and COS-7 cells were co-cultured and stained together by TPE-IQ-2O. Condition: 200 nM (Filter: both close; Channel 5; EX: 400-440 nm; Exposure time: bright field: 1000 ms Fluorescence: 1000 ms.
Two different kinds of cells were grown overnight on a 35 mm petri dish with a cover slip. The live cells were incubated with 200 nM of TPE-IQ-2O for 10 mins. The Hela cells were stained by TPE-IQ-2O; the MDCKII cells were stained by TPE-IQ-2O; the MDA-MB-231 cells and COS-7 cells were co-cultured and stained together by TPE-IQ-2O. Condition: 200 nM 10 mins (Filter: both close; Channel 5; EX: 400-440 nm; Exposure time: bright field: 1000 ms Fluorescence: 1000 ms.
(§1) HepG2 cells (human hepatocarcinoma cell line), PC-9 cells (human lung adenocarcinoma cell line), Hela cells (human cervical carcinoma cell line), and LX2 cells (normal cell, human hepatic stellate cell line) were stained with 200 nM DPA-IQ for 10 min. Images were taken under the same equipment settings. Scale bar: 30 μm. Excitation wavelength: 400-440 nm.

In series [2] the test system is PC-9 cells. Nature of the series: Cell imaging, PC-9 cells. It counts as cell-based, human. To be noted: PC-9, 200 nM DPA-IQ, 10 min. Here is the method:
(§2) The PC-9, HepG2, and HCC827 cells were grown overnight on a 35 mm petri dish with a cover slip. The live cells were incubated with 200 nM of TPE-IQ-2O for 20 and 10 mins. In all the experiments, the cancer cells are fluorescent in solely staining.
as §1

Series [3] concerns HepG2 cells. Nature of the series: Cell imaging, HepG2 cells. The format is cell-based, human. To be noted: HepG2, 200 nM DPA-IQ, 10 min. The method, then: as §2, §1
Series [4] has as its system LX2 cells. Briefly: Cell imaging, LX2 normal cells. The format is cell-based, human. To be noted: LX2, 200 nM DPA-IQ, 10 min. The method, then:
The LX2 cells were grown overnight on a 35 mm petri dish with a cover slip. The live cells were incubated with 200 nM of TPE-IQ-2O for 20 and 10 mins.
as §1

The test system of series [5] is mitochondria. Nature of the series: Co-staining with commercial organelle trackers in HeLa cells (mitochondria staining). It counts as cell-based, human. Here is the method: The HeLa cells were grown overnight on a 35 mm petri dish with a cover slip. Then the HeLa cells were stained with 200 nM TPE-IQ-2O and Mito-tracker red (50 nM)/Lyso-tracker red (50 nM)/DAPI (500 nM) for 20 mins.
The DMSO solution of DPA-IQ was almost non-emissive while the aggregation state powder of this material emits strong green luminescence upon the UV excitation.
The commercially available MitoTracker Red FM is co-stained as a control together with Naph-IQ.

Series [6] deals with HeLa cells. Briefly: MTT cell viability assay, HeLa cells. To be noted: HeLa, different concentrations, 24 hrs. It counts as cell-based, human. The method, then:
Hela cells were incubated with different concentrations of Naph-IQ in culture medium for 24 hours.
Before employing AIE-LysoY as a fluorescent visualizer of lysosome, a 3-(4,5-dimethyl-2-thiazolyl)-2,5-diphenyltetrazolium bromide (MTT) cell proliferation assay was first conducted to evaluate its cytotoxicity. […] The good biocompatibility of AIE-LysoY enables its application as a fluorescent tracer to follow the autophagic process of lysosome.

Series [7] concerns lysosome. Nature of the series: Lysosome imaging in HeLa cells, co-staining with LTR. The format is cell-based, human. To be noted: HeLa cells. The method, then:
Then, AIE-LysoY was applied to lysosome imaging and its lysosome-targeting performance was assessed by fluorescence microscope. HeLa cells were stained with 10 μM of AIE-LysoY for 10 min, followed by washing away the abundant molecules of AIE-LysoY and incubation with 50 nM of LTR for 30 min. […] The fluorescence of AIE-LysoY overlaps perfectly with that of LTR, indicating the lysosome-targeting of AIE-LysoY.
Quantitative analysis of the degree of overlapping of these two fluorescence signals by Pearson's coefficient (Rr), which depicts the degree of linear dependence between two variables, gives an overlapping coefficient of 0.90. The high Rr value proves that AIE-LysoY is a lysosome-selective probe. […] Changing the staining time from 10 min to 60 min, the specificity to lysosome is retained, as well as the emission contrast.
To design the lysosome-specific bioprobe, a molecular engineering approach was employed. The precursor of AIE-LysoY, FAS-Br, and two morpholine-functionalized AIEgens, TPE-2Mor and Nred-mor were prepared and applied to cell imaging. The molecular structures of TPE-2mor and Nred-mor are shown below: […]

In series [8] the test system is HeLa cells. Briefly: Cancer cell imaging for HeLa cells (TTE, TFE, fl-TFE). It counts as cell-based, human. To be noted: 10 μM; TTE in HeLa and A549, TFE and fl-TFE only in HeLa. Here is the method: Cell Culture. HeLa cells were cultured in MEM containing 10% FBS and 1% antibiotics (100 units/mL penicillin and 100 µg/mL streptomycin) in a 5% CO2 humidity incubator at 37° C. Cell Imaging. Lung cancer cell A549 were cultured in DMEM containing 10% FBS and antibiotics (100 units/mL penicillin and 100 µg/mL streptomycin) in a 5% CO2 humidity incubator at 37° C. Two different kind of cells were grown overnight on a 35 mm petri dish with a cover slip. The live cells were incubated with 10 μM of TTE for 15/30 mins, TFE for 30′ and fl-TFE for 30′ and 5 h (the last two have been tested only in HeLa cells). In a typical experiment, 2 μL of a 10 mM stock solution of TTE in DMSO were diluted to 1 mL with cell culture medium, followed by further dilution to desired concentration. The cells were imaged under a fluorescent microscope (BX41 Microscope) using same excitation and emission filters: excitation filter=330-385 nm, dichroic mirror=420 nm, and emission filter=400 nm long pass.
The HeLa cells were grown overnight on a 35 mm petri dish with a cover slip. The live cells were incubated with 10 μM of TTE for 30 mins, which are shown in FIG. 17A-B. The HeLa cells were incubated with 50 μM oleic acid for 6 hrs and then were co-stained by 10 μM TTE and 1 μg/mL for 15 mins.

Series [9] relates to MCF-7 cells. Briefly: Lysosomal imaging in MCF-7 cells, co-staining with LTR. The format is cell-based. To be noted: MCF-7, 50 nm TMX 24 hrs, matched with LTR. The method, then: The behavior of TPE-TMX in cellular settings was studied as compared to TMX. MCF-7 cells were incubated with 2 μM TPE-TMX and […] TMX for 24 hrs, respectively. The cells were then washed and directly observed under the microscope without fixation. […] However, the exact intracellular location of TMX cannot be confirmed by fluorescent microscopy because its emission wavelength is not in the range of the visible spectrum. Therefore, a series of commercial fluorescent markers were used to image drug delivery of TMX. […] On the other hand, TPE-TMX, without any aid of fluorescent dye, can be successfully monitored in the cells thanks to its intense blue emission. The controls display no emission under UV irradiation.
To further confirm the subcellular distribution of TPE-TMX, LTR was also used to co-stain MCF-7 cells with TPE-TMX. […] As expected, TPE-TMX is a specific fluorescent dye to visualize lysosomal organelle structures as well as monitor the drug release.

Structures are written as SMILES.

With `CCC[n+]1cc2ccc(N(c3ccccc3)c3ccccc3)cc2c(-c2ccccc2)c1-c1ccccc1` [DPA-IQ], the “Emission of stained cells” value in [1] was “strong emission”; in [2] it was “strong emission”; in series [3], “strong emission”; in series [4] it was “faint emission”. Further, in series [5], the “Mitochondrial staining compared with MitoTracker Red FM” value was “can stain the mitochondrial organelle as good as the commercially available MitoTracker Red FM”. Besides, in series [6], the “Cytotoxicity by MTT assay” value is on record as “low cytotoxicity”.

Regarding `Oc1cc(OCCCCCCBr)ccc1/C=N/N=C1c2ccccc2-c2ccccc21` [FAS-Br, (E)-2-(((9H-fluoren-9-ylidene)hydrazono)methyl)-5-((6-bromohexyl)oxy)phenol], the “Intracellular localisation of control probes” value (shortened to “Intracellular localisation”) in series [7] is “lights up intracellular lipid droplets and the recticulum structures of mitochondria in HeLa cells rather than lysosomes”.

As to `CCC[n+]1cc2ccc(-c3cccc4c(OC)cccc34)cc2c(-c2ccccc2)c1-c1ccccc1` [Naph-IQ], the “Mitochondrial staining compared with MitoTracker Red FM” value in series [5] is reported as “can stain the mitochondrial organelle as good as MitoTracker Red FM with higher resolution”. Also, the “Cytotoxicity by MTT assay” value in series [6] is recorded as “low cytotoxicity”.

As for `CN(C)c1ccc(/C=C(\C#N)c2ccc(-c3cc[n+](CCCCCCN4CCOCC4)cc3)cc2)cc1` [Nred-mor], the “Intracellular localisation” value in series [7] is reported as “selectively accumulates in the mitochondria”.

Regarding `c1coc(C(=C(c2ccco2)c2ccco2)c2ccco2)c1` [TFE, Tetrakis(2-furyl)ethene], in series [8], the “Ability to enter cells as bioprobe” value is given as “Only TTE has revealed to be useful for this purpose”.

As for `CC/C(=C(\c1ccccc1)c1ccc(OCCN(C)C)cc1)c1ccccc1` [TMX, Tamoxifen, reference compound], in series [9], the Subcellular distribution entry is given as “possible to be localized on the lysosomes”.

Consider `CCC[n+]1cc2ccc(-c3ccc(N(c4ccccc4)c4ccccc4)cc3)cc2c(-c2ccccc2)c1-c1ccccc1` [TPA-IQ], for which, in series [5], the “Mitochondrial staining compared with MitoTracker Red FM” value was “can stain the mitochondrial organelle as well as the commercially available MitoTracker Red FM with higher resolution”. The “Cytotoxicity by MTT assay” value in series [6] was “low cytotoxicity”.

Turning to `c1ccc(C(=C(c2ccccc2)c2ccc(CN3CCOCC3)cc2)c2ccc(CN3CCOCC3)cc2)cc1` [TPE-2Mor], the “Intracellular localisation” value in series [7] is reported as “stains all the hydrophobic regions”.

In the case of `c1cc2c3ccoc3c3c4occc4c4ccoc4c3c2o1` [fl-TFE, Tetrafuro[2,3-a:3′,2′-c:2″,3″-f:3″′,2″′-h]-naphthalene], the “Ability to enter cells as bioprobe” value in series [8] was “Only TTE has revealed to be useful for this purpose”.
